In one assay the target is VEGFR2, unphosphorylated (Homo sapiens (Human), UniProt P35968). The experiment in a line: VEGFR ADP GLO Assay. The format is biochemical. In general terms: ADP-Glo first removes unused ATP, then detects ADP through luciferase.
For assay [1], the target named is Tb-labeled inactive PDGFRβ (Homo sapiens (Human), UniProt P09619). Kind of assay: PDGFRβ LanthaScreen Assay. The conditions noted are these: read-out: PDGFR Lantha IC50. Type of assay: binding. Background: In TR-FRET formats the signal depends on donor and acceptor labels being close together.
Chain of Tb-labeled inactive PDGFRβ (P09619 33-1106): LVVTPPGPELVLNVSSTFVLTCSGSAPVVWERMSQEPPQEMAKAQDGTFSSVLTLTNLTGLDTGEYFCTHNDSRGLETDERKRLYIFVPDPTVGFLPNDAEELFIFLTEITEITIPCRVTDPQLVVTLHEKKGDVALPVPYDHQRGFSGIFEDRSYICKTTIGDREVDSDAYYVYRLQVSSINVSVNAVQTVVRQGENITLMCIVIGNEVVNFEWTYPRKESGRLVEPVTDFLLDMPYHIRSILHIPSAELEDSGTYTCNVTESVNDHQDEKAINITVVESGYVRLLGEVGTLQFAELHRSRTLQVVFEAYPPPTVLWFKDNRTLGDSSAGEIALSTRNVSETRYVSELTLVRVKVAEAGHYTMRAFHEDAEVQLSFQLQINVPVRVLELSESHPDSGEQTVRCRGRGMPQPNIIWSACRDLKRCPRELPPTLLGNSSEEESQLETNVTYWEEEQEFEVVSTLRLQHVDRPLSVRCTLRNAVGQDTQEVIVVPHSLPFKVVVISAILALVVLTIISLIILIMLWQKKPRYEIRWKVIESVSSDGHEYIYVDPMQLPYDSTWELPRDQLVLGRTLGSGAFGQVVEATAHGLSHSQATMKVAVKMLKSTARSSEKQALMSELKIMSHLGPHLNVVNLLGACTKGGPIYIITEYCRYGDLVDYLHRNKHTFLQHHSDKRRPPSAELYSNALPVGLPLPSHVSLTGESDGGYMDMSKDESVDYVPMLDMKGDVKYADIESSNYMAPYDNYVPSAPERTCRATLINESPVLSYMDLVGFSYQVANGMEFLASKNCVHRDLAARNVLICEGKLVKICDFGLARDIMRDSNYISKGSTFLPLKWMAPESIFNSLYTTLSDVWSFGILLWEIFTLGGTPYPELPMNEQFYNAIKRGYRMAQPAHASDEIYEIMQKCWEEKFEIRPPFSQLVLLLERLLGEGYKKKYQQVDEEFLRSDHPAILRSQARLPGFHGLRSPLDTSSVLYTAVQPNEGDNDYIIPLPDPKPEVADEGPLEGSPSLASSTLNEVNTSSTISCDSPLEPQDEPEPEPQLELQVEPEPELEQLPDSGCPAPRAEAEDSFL
In assay [2] the target is His6-TEV-PDGFRβ (557-1016) (Homo sapiens (Human), UniProt P09619). Kind of assay: PDGFRβ HTRF Assay. The format is biochemical. The settings on record: read-out: PDGFR HTRF IC50. Summed up: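 Human PDGFRβ (557-1016) pre-incubated with compound for 30 min at RT in pH 7.5 HEPES/MgCl2/EGTA/Brij-35/DTT buffer. Reaction started with ATP and TK-biotin peptide, run 3 h at RT, then quenched with EDTA-containing Eu-cryptate antibody/streptavidin-XL665. HTRF 665/620 nm ratio read after 60 min; percent inhibition relative to DMSO and 10 μM imatinib controls.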
Chain of His6-TEV-PDGFRβ (557-1016) (P09619 557-1016): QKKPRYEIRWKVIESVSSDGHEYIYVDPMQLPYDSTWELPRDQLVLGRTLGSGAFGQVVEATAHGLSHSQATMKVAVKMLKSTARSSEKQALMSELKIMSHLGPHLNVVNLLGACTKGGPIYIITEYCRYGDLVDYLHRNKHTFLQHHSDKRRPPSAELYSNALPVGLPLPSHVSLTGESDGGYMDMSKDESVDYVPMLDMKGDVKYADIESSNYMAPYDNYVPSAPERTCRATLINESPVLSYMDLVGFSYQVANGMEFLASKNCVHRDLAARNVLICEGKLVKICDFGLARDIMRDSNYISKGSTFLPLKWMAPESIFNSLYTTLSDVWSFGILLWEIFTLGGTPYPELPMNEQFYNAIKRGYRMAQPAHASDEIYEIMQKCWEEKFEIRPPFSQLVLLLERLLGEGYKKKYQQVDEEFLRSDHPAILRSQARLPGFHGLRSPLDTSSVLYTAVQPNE

pIC50: −log10 of the molar value.

Chain of VEGFR2, unphosphorylated (P35968 20-1356): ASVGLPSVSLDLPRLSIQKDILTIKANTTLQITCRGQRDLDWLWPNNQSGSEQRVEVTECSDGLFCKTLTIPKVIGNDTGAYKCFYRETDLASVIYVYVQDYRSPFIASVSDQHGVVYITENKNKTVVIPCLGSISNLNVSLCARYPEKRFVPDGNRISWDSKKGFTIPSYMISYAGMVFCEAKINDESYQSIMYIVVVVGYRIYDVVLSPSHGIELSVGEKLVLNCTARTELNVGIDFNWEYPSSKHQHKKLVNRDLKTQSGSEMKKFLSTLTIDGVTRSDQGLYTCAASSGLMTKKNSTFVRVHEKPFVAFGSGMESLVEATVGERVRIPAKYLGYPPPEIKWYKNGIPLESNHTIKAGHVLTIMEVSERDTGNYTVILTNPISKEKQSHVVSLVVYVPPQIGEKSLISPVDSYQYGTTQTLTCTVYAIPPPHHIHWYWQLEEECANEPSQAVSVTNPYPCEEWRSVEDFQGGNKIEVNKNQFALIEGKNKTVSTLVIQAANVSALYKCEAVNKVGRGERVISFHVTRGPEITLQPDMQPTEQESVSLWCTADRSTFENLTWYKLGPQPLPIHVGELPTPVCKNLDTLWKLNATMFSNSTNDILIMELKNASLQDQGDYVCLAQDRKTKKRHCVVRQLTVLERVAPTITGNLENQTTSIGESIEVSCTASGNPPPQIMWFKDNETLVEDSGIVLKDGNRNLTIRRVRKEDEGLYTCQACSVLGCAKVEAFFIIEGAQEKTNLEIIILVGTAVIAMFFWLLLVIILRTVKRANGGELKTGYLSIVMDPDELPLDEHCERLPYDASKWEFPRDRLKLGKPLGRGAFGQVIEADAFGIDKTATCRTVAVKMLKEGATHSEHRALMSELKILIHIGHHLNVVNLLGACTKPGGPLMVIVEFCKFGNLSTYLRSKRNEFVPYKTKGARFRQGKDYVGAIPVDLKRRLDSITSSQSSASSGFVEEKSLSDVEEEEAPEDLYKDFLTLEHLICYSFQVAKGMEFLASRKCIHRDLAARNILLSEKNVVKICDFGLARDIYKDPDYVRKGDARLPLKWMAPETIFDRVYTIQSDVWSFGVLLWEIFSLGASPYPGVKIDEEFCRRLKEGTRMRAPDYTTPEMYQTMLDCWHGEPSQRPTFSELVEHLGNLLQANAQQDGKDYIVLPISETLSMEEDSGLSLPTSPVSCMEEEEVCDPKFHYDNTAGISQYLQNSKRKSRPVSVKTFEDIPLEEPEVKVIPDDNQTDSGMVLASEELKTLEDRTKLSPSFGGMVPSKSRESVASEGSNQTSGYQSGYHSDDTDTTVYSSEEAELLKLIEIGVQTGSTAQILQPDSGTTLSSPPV

What is called pIC50 is the IC50 on a negative log10 scale, so that one unit is a factor of ten. Consider `Cc1ncc(NC(=O)CN2C[C@H](C)O[C@@H](C)C2)cc1NC(=O)c1cnn2cc(-c3cnn(C)c3)sc12` [Example 52, N-(5-(2-((2S,6S)-2,6-dimethylmorpholino)acetamido)-2-methylpyridin-3-yl)-2-(1-methyl-1H-pyrazol-4-yl)pyrazolo[5,1-b]thiazole-7-carboxamide], for which the pIC50 was under 5.12 on VEGFR2, unphosphorylated; 9.10 in assay [1]; 9.52 in assay [2].

Turning to `Cc1ncc(NC(=O)CN2CCOC(C)(C)C2)cc1NC(=O)c1cnn2cc(-c3cnn(C)c3)sc12` [Example 67, N-(5-(2-(2,2-dimethylmorpholino)acetamido)-2-methylpyridin-3-yl)-2-(1-methyl-1H-pyrazol-4-yl)pyrazolo[5,1-b]thiazole-7-carboxamide], the negative-log IC50 (pIC50) against VEGFR2, unphosphorylated was under 5.12; in assay [1], 8.24; in assay [2], 9.00.

Take `Cc1ncc(NC(=O)CN2CCC(F)(F)C2)cc1NC(=O)c1cnn2cc(-c3cnn(C)c3)sc12` [Example 73, N-(5-(2-(3,3-difluoropyrrolidin-1-yl)acetamido)-2-methylpyridin-3-yl)-2-(1-methyl-1H-pyrazol-4-yl)pyrazolo[5,1-b]thiazole-7-carboxamide]: the pIC50 at VEGFR2, unphosphorylated was under 5.12; in assay [1], 8.77; in assay [2], 9.52.

In the case of `Cc1ncc(NC(=O)CN2CCS(=O)(=O)CC2)cc1NC(=O)c1cnn2cc(-c3cnn(C)c3)sc12` [Example 59, N-(5-(2-(1,1-dioxidothiomorpholino)acetamido)-2-methylpyridin-3-yl)-2-(1-methyl-1H-pyrazol-4-yl)pyrazolo[5,1-b]thiazole-7-carboxamide], the pIC50 is under 5.12 on VEGFR2, unphosphorylated; 7.03 in assay [1]; 8.68 in assay [2].

`CC[C@@H]1CN(CC(=O)Nc2cnc(C)c(NC(=O)c3cnn4cc(-c5cnn(C)c5)sc34)c2)CCO1` [Example 65, (R)—N-(5-(2-(2-ethylmorpholino)acetamido)-2-methylpyridin-3-yl)-2-(1-methyl-1H-pyrazol-4-yl)pyrazolo[5,1-b]thiazole-7-carboxamide]: the negative logarithm of the IC50 (pIC50) at VEGFR2, unphosphorylated was under 5.12; in assay [1], 7.78; in assay [2] it was 9.15.

As for `Cc1ncc(NC(=O)CN2Cc3ncsc3C2)cc1NC(=O)c1cnn2cc(-c3cnn(C)c3)sc12` [Example 76, N-(5-(2-(4H-pyrrolo[3,4-d]thiazol-5 (6H)-yl)acetamido)-2-methylpyridin-3-yl)-2-(1-methyl-1H-pyrazol-4-yl)pyrazolo[5,1-b]thiazole-7-carboxamide], the pIC50 is under 5.12 against VEGFR2, unphosphorylated; 8.05 in assay [1]; 9.05 in assay [2].

In the case of `Cc1ncc(C(=O)NCCN2CC3CCC2CC3)cc1NC(=O)c1cnn2cc(-c3ccnc(N4CCOCC4)c3)sc12` [Example 484, N-(5-((2-(2-azabicyclo[2.2.2]octan-2-yl)ethyl)carbamoyl)-2-methylpyridin-3-yl)-2-(2-morpholinopyridin-4-yl)pyrazolo[5,1-b]thiazole-7-carboxamide], the pIC50 against VEGFR2, unphosphorylated was under 5.12; in assay [1], 8.85; in assay [2] it was 9.70.

Consider `Cc1ncc(NC(=O)CN2CCOC[C@H]2C)cc1NC(=O)c1cnn2cc(-c3cnn(C)c3)sc12` [Example 50, (R)-2-(1-methyl-1H-pyrazol-4-yl)-N-(2-methyl-5-(2-(3-methylmorpholino)acetamido)pyridin-3-yl)pyrazolo[5,1-b]thiazole-7-carboxamide], for which the pIC50 is under 5.12 on VEGFR2, unphosphorylated; 7.85 in assay [1]; 9.22 in assay [2].

Consider `Cc1ncc(NC(=O)CN2CCN(C)C(=O)C2)cc1NC(=O)c1cnn2cc(-c3cnn(C)c3)sc12` [Example 72, 2-(1-methyl-1H-pyrazol-4-yl)-N-(2-methyl-5-(2-(4-methyl-3-oxopiperazin-1-yl)acetamido)pyridin-3-yl)pyrazolo[5,1-b]thiazole-7-carboxamide], for which the negative logarithm of the IC50 (pIC50) is under 5.12 against VEGFR2, unphosphorylated; 6.95 in assay [1]; 8.24 in assay [2].

With `COCC1CCCN1CC(=O)Nc1cnc(C)c(NC(=O)c2cnn3cc(-c4cnn(C)c4)sc23)c1` (stereo not drawn) [Example 79, N-(5-(2-(2-(methoxymethyl)pyrrolidin-1-yl)acetamido)-2-methylpyridin-3-yl)-2-(1-methyl-1H-pyrazol-4-yl)pyrazolo[5,1-b]thiazole-7-carboxamide], the pIC50 is under 5.12 against VEGFR2, unphosphorylated; 7.96 in assay [1]; 9.10 in assay [2].

For `COCCn1cc(-c2cn3ncc(C(=O)Nc4cc(NC(=O)CCN5CCC6(CC6)C5)cnc4C)c3s2)cn1` [Example 91, N-(5-(3-(5-azaspiro[2.4]heptan-5-yl)propanamido)-2-methylpyridin-3-yl)-2-(1-(2-methoxyethyl)-1H-pyrazol-4-yl)pyrazolo[5,1-b]thiazole-7-carboxamide], the pIC50 against VEGFR2, unphosphorylated was under 5.12; in assay [1] it was 7.88; in assay [2] it was 9.30.

Consider `COC1CCN(CC(=O)Nc2cnc(C)c(NC(=O)c3cnn4cc(-c5cnn(C)c5)sc34)c2)CC1` [Example 83, N-(5-(2-(4-methoxypiperidin-1-yl)acetamido)-2-methylpyridin-3-yl)-2-(1-methyl-1H-pyrazol-4-yl)pyrazolo[5,1-b]thiazole-7-carboxamide], for which the pIC50 was under 5.12 against VEGFR2, unphosphorylated; 7.46 in assay [1]; 8.64 in assay [2].

Take `COCCn1cc(-c2cn3ncc(C(=O)Nc4cc(NC(=O)C5(CN6CCCC6(C)C)CC5)cnc4C)c3s2)cn1` [Example 487, N-(5-(1-((2,2-dimethylpyrrolidin-1-yl)methyl)cyclopropane-carboxamido)-2-methylpyridin-3-yl)-2-(1-(2-methoxyethyl)-1H-pyrazol-4-yl)pyrazolo[5,1-b]thiazole-7-carboxamide]: the negative-log IC50 (pIC50) against VEGFR2, unphosphorylated was under 5.12; in assay [1] it was 6.71; in assay [2], 8.11.

Turning to `Cc1ncc(NC(=O)CN2CCOCC2(C)C)cc1NC(=O)c1cnn2cc(-c3cnn(C)c3)sc12` [Example 68, N-(5-(2-(3,3-dimethylmorpholino)acetamido)-2-methylpyridin-3-yl)-2-(1-methyl-1H-pyrazol-4-yl)pyrazolo[5,1-b]thiazole-7-carboxamide], the pIC50 against VEGFR2, unphosphorylated is under 5.12; in assay [1] it was 8.09; in assay [2], 9.10.

With `Cc1ncc(NC(=O)CN2CCc3ncccc3C2)cc1NC(=O)c1cnn2cc(-c3cnn(C)c3)sc12` [Example 63, N-(5-(2-(7,8-dihydro-1,6-naphthyridin-6 (5H)-yl)acetamido)-2-methylpyridin-3-yl)-2-(1-methyl-1H-pyrazol-4-yl)pyrazolo[5,1-b]thiazole-7-carboxamide], the pIC50 on VEGFR2, unphosphorylated was under 5.12; in assay [1], 7.37; in assay [2], 8.54.

As to `Cc1ncc(NC(=O)CCN2CC3CCC2CC3)cc1NC(=O)c1cnn2cc(-c3cnn(C)c3)sc12` [Example 43, N-(5-(3-(2-azabicyclo[2.2.2]octan-2-yl)propanamido)-2-methylpyridin-3-yl)-2-(1-methyl-1H-pyrazol-4-yl)pyrazolo[5,1-b]thiazole-7-carboxamide], the negative logarithm of the IC50 (pIC50) at VEGFR2, unphosphorylated is under 5.12; in assay [1], 8.41; in assay [2], 9.64.

In the case of `COCCn1cc(-c2cn3ncc(C(=O)Nc4cc(NC(=O)C[C@H]5CCCN5C(C)C)cnc4C)c3s2)cn1` [Example 485, (R)—N-(5-(2-(1-isopropylpyrrolidin-2-yl)acetamido)-2-methylpyridin-3-yl)-2-(1-(2-methoxyethyl)-1H-pyrazol-4-yl)pyrazolo[5,1-b]thiazole-7-carboxamide], the pIC50 against VEGFR2, unphosphorylated is under 5.12; in assay [1], 7.79; in assay [2] it was 9.10.

Regarding `Cc1ncc(NC(=O)CN2CCOCC23CC3)cc1NC(=O)c1cnn2cc(-c3cnn(C)c3)sc12` [Example 47, N-(5-(2-(7-oxa-4-azaspiro[2.5]octan-4-yl)acetamido)-2-methylpyridin-3-yl)-2-(1-methyl-1H-pyrazol-4-yl)pyrazolo[5,1-b]thiazole-7-carboxamide], the pIC50 against VEGFR2, unphosphorylated is under 5.12; in assay [1], 7.78; in assay [2], 9.05.

For `Cc1ncc(NC(=O)CN2CCCC(F)(F)C2)cc1NC(=O)c1cnn2cc(-c3cnn(C)c3)sc12` [Example 49, N-(5-(2-(3,3-difluoropiperidin-1-yl)acetamido)-2-methylpyridin-3-yl)-2-(1-methyl-1H-pyrazol-4-yl)pyrazolo[5,1-b]thiazole-7-carboxamide], the pIC50 on VEGFR2, unphosphorylated is under 5.12; in assay [1], 8.68; in assay [2], 9.40.

With `Cc1ncc(NC(=O)CN2CCc3c(cnn3C)C2)cc1NC(=O)c1cnn2cc(-c3cnn(C)c3)sc12` [Example 57, 2-(1-methyl-1H-pyrazol-4-yl)-N-(2-methyl-5-(2-(1-methyl-6,7-dihydro-1H-pyrazolo[4,3-c]pyridin-5 (4H)-yl)acetamido)pyridin-3-yl)pyrazolo[5,1-b]thiazole-7-carboxamide], the pIC50 at VEGFR2, unphosphorylated was under 5.12; in assay [1], 7.97; in assay [2], 9.00.

As for `Cc1ncc(NC(=O)CN2CCC3(CC2)COC3)cc1NC(=O)c1cnn2cc(-c3cnn(C)c3)sc12` [Example 46, N-(5-(2-(2-oxa-7-azaspiro[3.5]nonan-7-yl)acetamido)-2-methylpyridin-3-yl)-2-(1-methyl-1H-pyrazol-4-yl)pyrazolo[5,1-b]thiazole-7-carboxamide], the negative logarithm of the IC50 (pIC50) on VEGFR2, unphosphorylated is under 5.12; in assay [1] it was 7.05; in assay [2], 8.52.

These data come from patent US20240109917A1 (ACTELION PHARMACEUTICALS LTD, priority 2020, published 2024).
